From patent publication US8933075B2, “Compounds useful as antiviral agents, compositions, and methods of use” (priority 2010, dated 2015)

Tested on: A/Udorn/72 (H3N2) virus
Assay: Plaque assay in MDCK cells: EC50 by reduction of plaque number
Assay type: cell-based, influenza virus
Details: MDCK

SMILES | EC50
COc1cc(OC)cc(-c2cc(CCCOC(=O)[C@@H](N)Cc3ccccc3)c(/C=C3\SC(=S)N(C4CC5CCC4C5)C3=O)o2)c1 (stereo partly drawn) [Compound 153] | < 100 nM
COc1cc(OC)cc(-c2cc(CCCN3CCOCC3)c(/C=C3\SC(=S)N(C4CC5CCC4C5)C3=O)o2)c1 (stereo not drawn) [Compound 181] | < 100 nM
O=C1/C(=C/c2oc(-c3ccc(F)cc3)cc2CCCN2CCOCC2)SC(=S)N1C1C2CC3CC(C2)CC1C3 (stereo not drawn) [Compound 183] | < 100 nM
COc1cc(O)cc(-c2cc(CCCOC(=O)[C@H](CC(=O)OC(C)(C)C)NC(=O)OC(C)(C)C)c(/C=C3\SC(=S)N(C4CC5CCC4C5)C3=O)o2)c1 (stereo partly drawn) [Compound 149] | < 100 nM
CC(C)(C)OC(=O)N[C@@H](CC(N)=O)C(=O)OCCCc1cc(-c2ccc(Cl)cc2)[nH]c1/C=C1\SC(=S)N(C2C3CC4CC(C3)CC2C4)C1=O (stereo partly drawn) [Compound 253] | < 100 nM
O=C1/C(=C/c2ccc(-c3ccc(Cl)cc3)s2)SC(=S)N1C1C2CC3CC(C2)CC1C3 (stereo not drawn) [Compound 317] | < 100 nM
COc1cc(OC)cc(-c2cc(CCCOC(=O)[C@@H](N)c3ccccc3)c(/C=C3\SC(=S)N(C4CC5CCC4C5)C3=O)o2)c1 (stereo partly drawn) [Compound 154] | < 100 nM
COc1cc(C)c(-c2ccc(/C=C3\SC(=S)N(C4CCCCCCC4)C3=O)o2)cc1C [Compound 49] | < 100 nM
COC(=O)COc1ccc2c(O)c(-c3ccc(/C=C4\SC(=S)N(C5CC6CCC5C6)C4=O)o3)c(=O)oc2c1 (stereo not drawn) [Compound 318] | < 100 nM
O=C1/C(=C/c2oc(-c3ccc(Cl)cc3)cc2CCCN2CCOCC2)SC(=S)N1C1C2CC3CC(C2)CC1C3 (stereo not drawn) [Compound 184] | < 100 nM
NCCCc1cc(-c2ccc(F)cc2)oc1/C=C1\SC(=S)N(C2C3CC4CC(C3)CC2C4)C1=O (stereo not drawn) [Compound 126] | < 100 nM
O=C1/C(=C/c2sc(-c3ccc(Cl)cc3)cc2C#CCCCO)SC(=S)N1C1C2CC3CC(C2)CC1C3 (stereo not drawn) [Compound 290] | < 100 nM
COc1cc(OC)cc(-c2cc(CCCNC(=O)[C@@H](N)CC(=O)O)c(/C=C3\SC(=S)N(C4CC5CCC4C5)C3=O)o2)c1 (stereo partly drawn) [Compound 169] | < 100 nM
O=C1/C(=C/c2sc(-c3ccc(Cl)cc3)cc2-c2ccc(Cl)cc2)SC(=S)N1C1C2CC3CC(C2)CC1C3 (stereo not drawn) [Compound 275] | < 100 nM
O=C1/C(=C/c2oc(-c3ccc(Cl)cc3)cc2CCCCCN2CCNCC2)SC(=S)N1C1CC2CCC1C2 (stereo not drawn) [Compound 192] | < 100 nM
O=C1/C(=C/c2ccc(-c3ccc(Cl)cc3)o2)SC(=S)N1C1CCCC1 [Compound 48] | < 100 nM
CC(C)(C)OC(=O)N[C@@H](CC(N)=O)C(=O)OCCCC#Cc1cc(-c2cccc(Cl)c2)sc1/C=C1\SC(=S)N(C2C3CC4CC(C3)CC2C4)C1=O (stereo partly drawn) [Compound 312] | < 100 nM

SMILES | EC50
O=C1/C(=C/c2cn(-c3ccc([N+](=O)[O-])cc3)cn2)SC(=S)N1C1CCCCCCCCCCC1 [Compound 64] | < 100 nM
O=C1/C(=C/c2oc(-c3ccc(Cl)cc3)cc2CCCN2CCOCC2)SC(=S)N1C1CC2CCC1C2 (stereo not drawn) [Compound 179] | < 100 nM
COc1cccc(-c2cc(C#CCCCOC(=O)[C@H](CC(N)=O)NC(=O)OC(C)(C)C)c(/C=C3\SC(=S)N(C4CC5CCC4C5)C3=O)s2)c1 (stereo partly drawn) [Compound 314] | < 100 nM
O=C1/C(=C/c2ccc(-c3c(O)c4cc(OCc5ccc(Cl)cc5)ccc4oc3=O)o2)SC(=S)N1C1CC2CCC1C2 (stereo not drawn) [Compound 321] | < 100 nM
COC(=O)/C=C/c1ccc(/C=C2\SC(=S)N(C3CC4CCC3C4)C2=O)o1 (stereo not drawn) [Compound 221, (E)-Methyl 3-(5-((Z)-(3-(bicyclo[2.2.1]heptan-2-yl)-4-oxo-2-thioxothiazolidin-5-ylidene)methyl)-furan-2-yl)acrylate] | < 100 nM
COc1cc(OC)cc(-c2cc(CCCCCN3CCOCC3)c(/C=C3\SC(=S)N(C4CC5CCC4C5)C3=O)o2)c1 (stereo not drawn) [Compound 360] | < 100 nM
COc1cc(OC)cc(-c2cc(CCCN(CC(=O)O)CC(=O)O)c(/C=C3\SC(=S)N(C4CC5CCC4C5)C3=O)o2)c1 (stereo not drawn) [Compound 133] | 100 to 250 nM
COc1cccc(-c2cc(CCCOC(=O)[C@@H](CC(N)=O)NC(=O)OC(C)(C)C)c(/C=C3\SC(=S)N(C4C5CC6CC(C5)CC4C6)C3=O)o2)c1 (stereo partly drawn) [Compound 354] | < 100 nM
O=C1/C(=C/c2oc(-c3ccccc3)cc2CO)SC(=S)N1C1CC2CCC1C2 (stereo not drawn) [Compound 93] | < 100 nM
COCOc1cc(-c2ccc(/C=C3\SC(=S)N(C4CC5CCC4C5)C3=O)o2)cc(OC)c1OC (stereo not drawn) [Compound 27] | < 100 nM
CC(C)(C)OC(=O)N[C@@H](CC(N)=O)C(=O)N1CCN(CCCCCc2cc(-c3ccc(Cl)cc3)oc2/C=C2\SC(=S)N(C3C4CC5CC(C4)CC3C5)C2=O)CC1 (stereo partly drawn) [Compound 373] | < 100 nM
O=C1/C(=C/c2ccco2)SC(=S)N1C1C2CC3CC(C2)CC1C3 (stereo not drawn) [Compound 209, (Z)-3-(adamantan-2-yl)-5-(furan-2-ylmethylene)-2-thioxothiazolidin-4-one] | 250 to 1000 nM
COc1cccc(-c2cc(CCCCCO)c(/C=C3\SC(=S)N(C4CC5CCC4C5)C3=O)[nH]2)c1 (stereo not drawn) [Compound 235] | < 100 nM
COc1cc(OC)cc(-c2cc(CCCOC(C)=O)c(/C=C3\SC(=S)N(C4C5CC6CC(C5)CC4C6)C3=O)o2)c1 (stereo not drawn) [Compound 98] | < 100 nM
COc1ccc2c(O)c(-c3ccc(/C=C4\SC(=S)N(C5CC6CCC5C6)C4=O)o3)c(=O)oc2c1 (stereo not drawn) [Compound 73] | 100 to 250 nM
COc1ccc(-c2ccc(/C=C3\SC(=S)N(C4CC5CCC4C5)C3=O)o2)cc1C(=O)O (stereo not drawn) [Compound 36] | < 100 nM
